Assay results reported in patent US20230256007A1 (priority 2022, published 2023).

Columns and labels:
[1] = tested on: patient with sequelae of influenza virus type A infection; conditions: Case 3
[2] = tested on: patient with sequelae of infection with the delta variant of coronavirus; conditions: Case 1
Excerpt: Although the patient was cured after home care, their activity level was lower than that of a healthy person. Fatigue, pain, and decrease in thinking power progressed extremely, and the level of daily life decreased below the level of a healthy person, so they underwent a medical examination at the hospital. The diagnosis based on the physician’s diagnostic criteria was as follows. • (i) Fatigue - persistent, fatigue so pronounced that the activity level is severely impaired: severity 3 (severe) • (ii) Feeling of fatigue after exertion - loss of physical and mental endurance, fatigue aggravated by physical exertion: severity 3 (severe) • (iii) Long recovery time from exertion - it takes 24 hours or more to recover to pre-exertion activity level: severity 2 (moderate) • (iv) Pain - muscle pain, joint pain, headache: severity 2 (moderate) • (v) Sleeping disorder - nonrestorative sleep, insomnia, hypersomnia: severity 2 (moderate) • (vi) Confusion and loss of concentration: severity 2 (moderate) • (vii) Memory impairment - short-term memory is impaired: severity 1 (mild) • (viii) Shortness of breath associated with exertion: severity 2 (moderate) • (ix) Gastrointestinal disorder - diarrhea, irritable bowel syndrome: severity 1 (mild) • (x) Repeated sore throat: severity 1 (mild) • (xi) Dizziness when standing up or fragility: severity 1 (mild) • (xii) Heat/cold intolerance: severity 1 (mild) • (xiii) Body temperature changes, irregular body temperature, cold hands and feet: severity 1 (mild)

[3] = around 3 weeks after inhalation
[4] = after 4 weeks of inhalation, before inhalation severity 2: moderate

[HH] [hydrogen gas, hydrogen]
Number of days without naps ([1]; after 8 weeks): increased | Amount of time for physical activity ([1]; after 8 weeks, although there was malaise): increased | Bowel movements and decreased motivation [1, 3]: improvement | Nap time [1, 3]: decreased | General feeling ([1]; around 3 weeks after inhalation, about 4% to 5% hydrogen, 5 hours per day): felt a little lighter | Effect on chronic fatigue, pain, and brain fog (summary) [2]: clearly effective | Feeling on inhalation (sympathetic nerves high before inhalation) ([2]; after 2 weeks of inhalation): felt relaxed and drowsy | Foggy head / brain fog ([2]; after 2 weeks of inhalation): their head appeared clear and refreshed | Frequency of headache and generalized pain ([2]; after 2 weeks of inhalation): seemed to decrease | Number of doses of analgesics ([2]; after 2 weeks of inhalation): decreased | Bedridden chronic severe fatigue (patient's impression) ([2]; after 4 weeks of inhalation): significantly alleviated | Cognitive ability (patient's impression) ([2]; after 4 weeks of inhalation): regained some of their writing and summarizing skills | Foggy feeling in the brain (patient's impression) ([2]; after 4 weeks of inhalation): alleviated | Number of doses of analgesics relative to that before hydrogen inhalation ([2]; after 4 weeks of inhalation): ¼ | Other symptoms (not significantly recovered) ([2]; after 4 weeks of inhalation): did not worsen | Sleeping disorder ([2]; after 4 weeks of inhalation): same strong symptoms as before | Long recovery time from exertion: severity after inhalation (physician's diagnosis) [2, 4]: severity 1: mild | Loss of concentration: severity after inhalation (physician's diagnosis) [2, 4]: severity 1: mild | Pain, headache: severity after inhalation (physician's diagnosis) [2, 4]: severity 1: mild | Repeated sore throat: severity after inhalation (physician's diagnosis) [2, 4]: severity 1: mild | Fatigue - persistent, activity level severely impaired: severity after inhalation (physician's diagnosis) ([2]; after 4 weeks of inhalation, before inhalation severity 3: severe): severity 1: mild, or severity 2: moderate | Days on which they feel better like a healthy person ([2]; after 4 weeks of inhalation, still falls asleep 2 or 3 days a week): more than half the days of the week | Pain due to training, the next day ([2]; inhalation for about 90 minutes every day): almost eliminated the pain the next day | Falling asleep 1 to 2 hours after exertion (sudden intense fatigue) ([2]; inhaling hydrogen for about 90 minutes): can avoid falling asleep | Frequency of headache (patient's impression) ([2]; since the start of inhalation, once or twice a week before): decreased significantly, and headache has almost disappeared | Muscle pain and joint pain after training ([2]; two weeks after starting inhalation): began to be greatly alleviated
